The values below come from patent US7244738B2, “Arylamine-substituted quinazolinone compounds useful as alpha 1A/B adrenergic receptor antagonists” (Roche Palo Alto LLC, priority 2003, dated 2007).

Counter-ions that a name gives are not always drawn.

In the case of `CCC1CCN(c2cccc(CN(C)c3nc(=O)c4c(C)c(OC)c(OC)cc4[nH]3)c2)C1=O` (stereo not shown) [Example 257, 2-{[3-(3-Ethyl-2-oxo-pyrrolidin-1-yl)-benzyl]-methyl-amino}-6,7-dimethoxy-5-methyl-1H-quinazolin-4-one], the melting point lay within 200.1 to 202.1 °C. Turning to `COc1cc2[nH]c(N(C)Cc3cccc(CN(C)CCO)c3)nc(=O)c2c(OC)c1OC` (as salt: HCl) [Example 116, 2-[(3-{[(2-Hydroxy-ethyl)-methyl-amino]-methyl}-benzyl)-methyl-amino]-5,6,7-trimethoxy-1H-quinazolin-4-one], the melting point was 169 to 171.9 °C. In turn, `COc1cc2nc(N(C)Cc3cccc(OC[S+](C)[O-])c3)[nH]c(=O)c2c(C)c1OC` (stereo not shown) [Example F-2, 2-[(3-Methanesulfinylmethoxy-benzyl)-methyl-amino]-6,7-dimethoxy-5-methyl-1H-quinazolin-4-one] yielded a melting point of 191 to 193.5 °C.

Take `COc1ccnc(N2CCN(c3nc(=O)c4c(OC)c(OC)c(OC)cc4[nH]3)CC2)c1` [Example 73, 5,6,7-Trimethoxy-2-[4-(4-methoxy-pyridin-2-yl)-piperazin-1-yl]-1H-quinazolin-4-one]: the melting point lay in the range of 229 to 231 °C.

As for `COc1cc2[nH]c(N(C)Cc3cccc(CC#N)c3)nc(=O)c2c(OC)c1OC` [Example 107, (3-{[Methyl-(5,6,7-trimethoxy-4-oxo-1,4-dihydro-quinazloin-2-yl)-amino]-methyl}-phenyl)-acetonitrile], the melting point lay within 149.5 to 153.3 °C. The molecule `COc1cc2[nH]c(N(C)Cc3cccc(/N=C(\C)N(C)C)c3)nc(=O)c2c(C#N)c1OC` [Example 53, N′-(3-{[(5-Cyano-6,7-dimethoxy-4-oxo-1,4-dihydro-quinazolin-2-yl)-methyl-amino]-methyl}-phenyl)-N,N-dimethyl-acetamide] registered a melting point of 222.1 to 226.9 °C. Consider `COCCCNc1cccc(CN(C)c2nc(=O)c3c(OC)c(OC)c(OC)cc3[nH]2)c1` (as salt: HCl) [Example 188, 5,6,7-Trimethoxzy-2-{[3-(3-methoxy-propylamino)-benzyl]-methyl-amino}-1H-quinazolin-4-one], for which the melting point was 207 to 209.1 °C. The figure for `COc1cc2[nH]c(N(C)Cc3cccc(NC4=NCCC4)c3)nc(=O)c2cc1OC` [Example 87, 2-{[3-(4,5-Dihydro-3H-pyrrol-2-ylamino)-benzyl]-methyl-amino}-6,7-dimethoxy-1H-quinazolin-4-one] is 211 to 214 °C; for `COc1cc2[nH]c(N(C)Cc3ccc(CN(C)S(C)(=O)=O)cc3)nc(=O)c2c(OC)c1OC` [Example 21, N-Methyl-N-(4-{[methyl-(5,6,7-trimethoxy-4-oxo-1,4-dihydro-quinazolin-2-yl)-amino]-methyl}-benzyl)-methanesulfonamide] it is 148.8 to 151 °C. In the case of `COc1cc2[nH]c(N(C)Cc3cccc(Nc4nccc(Cl)n4)c3)nc(=O)c2c(OC)c1OC` [Example 215, 2-{[3-(4-Chloro-pyrimidin-2-ylamino)-benzyl]-methyl-amino}-5,6,7-trimethoxy-1H-quinazolin-4-one], the melting point lay in the range of 128.9 to 133.4 °C.

The molecule `COc1cc2[nH]c(N(C)Cc3cccc(N4C[C@@H](OC)CC4=O)c3)nc(=O)c2c(OC)c1OC` [Example 8, 5,6,7-Trimethoxy-2-{[3-((S)-4-methoxy-2-oxo-pyrrolidin-1-yl)-benzyl]-methyl-amino}-1H-quinazolin-4-one] gave a melting point of 142.5 to 147.4 °C.

Molecule `C=CCN1Cc2ccc(CN(C)c3nc(=O)c4c(OC)c(OC)c(OC)cc4[nH]3)cc2C1` [Example 13, 2-[(2-Allyl-2,3-dihydro-1H-isoindol-5-ylmethyl)-methyl-amino]-5,6,7-trimethoxy-1H-quinazolin-4-one] had a melting point of 133.7 to 136.6 °C. In the case of `CCN(CCOC)Cc1ccc(CN(C)c2nc(=O)c3c(OC)c(OC)c(OC)cc3[nH]2)cc1` [Example 32, 2-[(4-{[Ethyl(2-methoxy-ethyl)-amino]-methyl}-benzyl)-methyl-amino]-5,6,7-trimethoxy-1H-quinazolin-4-one], the melting point is 120 to 122.4 °C.

For the molecule `COc1cc2[nH]c(N(C)Cc3ccc(CN4CCC(O)C4)cc3)nc(=O)c2c(C)c1OC` (stereo not shown), the melting point was 166 to 169 °C.

In turn, `COc1cc2[nH]c(N(C)Cc3cccc(N4C(=O)CC(C)C4=O)c3)nc(=O)c2c(C)c1OC` (stereo not shown) [Example 65, 1-(3-{[(6,7-Dimethoxy-5-methyl-4-oxo-1,4-dihydro-quinazolin-2-yl)-methyl-amino]-methyl}-phenyl)-3-methyl-pyrrolidine-2,5-dione] came in with a melting point of 217.8 to 219.2 °C. `COc1cc2[nH]c(N(C)Cc3cccc(N4C=NC(C)(C)C4)c3)nc(=O)c2cc1OC` [Example A-12, 2-{[3-(4,4-Dimethyl-4,5-dihydro-imidazol-1-yl)-benzyl]-methyl-amino}-6,7-dimethoxy-1H-quinazolin-4-one] had a melting point of 240 to 244 °C. For `COc1cc2[nH]c(N(C)Cc3cccc(C(C)N(C)C)c3)nc(=O)c2c(C)c1OC` (stereo not shown) [Example 61, 2-{[3-(1-Dimethylamino-ethyl)-benzyl]-methyl-amino}-6,7-dimethoxy-5-methyl-1H-quinazolin-4-one], the melting point was 137 to 140.1 °C.

For the molecule `COc1cc2[nH]c(N(C)Cc3cccc(N(C)S(=O)(=O)N(C)C)c3)nc(=O)c2c(OC)c1OC` [Example 172, N,N,N′-Trimethyl-N′-(3-{[methyl-(5,6,7-trimethoxy-4-oxo-1,4-dihydro-quinazolin-2-yl)-amino]-methyl}-phenyl)-sulfamide], the melting point was 170.3 to 172.3 °C. Molecule `COc1cc2[nH]c(N(C)Cc3cccc(OCCN(C)C)c3)nc(=O)c2c(C)c1OC` [Example 164, 2-{[3-(2-Dimethylamino-ethoxy)-benzyl]-methyl-amino}-6,7-dimethoxy-5-methyl-1H-quinazolin-4-one] yielded a melting point of 137.9 to 141.9 °C. In turn, `COc1cc2[nH]c(N(C)Cc3cccc(/N=C(\C)N(C)C)c3)nc(=O)c2cc1OC` [Example 70, N′-(3-{[(6,7-Dimethoxy-4-oxo-1,4-dihydro-quinazolin-2-yl)-methyl-amino]-methyl}-phenyl)-N,N-dimethyl-acetamidine] displayed a melting point of 221.8 to 223 °C.

`COc1cc2[nH]c(N(C)Cc3cccc(-c4ncc[nH]4)c3)nc(=O)c2c(C)c1OC` [Example 248, 2-{[3-(1H-Imidazol-2-yl)-benzyl]-methyl-amino}-6,7-dimethoxy-5-methyl-1H-quinazolin-4-one] returned a melting point of 255.5 to 258.9 °C. For `COc1cc2[nH]c(N(C)Cc3cccc(C(C)N(C)C(=O)N(C)C)c3)nc(=O)c2c(C)c1OC` (stereo not shown) [Example 4, 1-[1-(3-{[(6,7-Dimethoxy-5-methyl-4-oxo-1,4-dihydro-quinazolin-2-yl)-methyl-amino]-methyl}-phenyl)-ethyl]-1,3,3-trimethyl-urea] the value was 125.9 to 128 °C.

`COCCNCc1cccc(CN(C)c2nc(=O)c3c(C)c(OC)c(OC)cc3[nH]2)c1` [Example 77] came in with a melting point of 150 to 152.1 °C.

As to `COc1cc2nc(N(C)Cc3cccc(OCCO)c3)[nH]c(=O)c2c(OC)c1OC` [Example F-1, 2-{[3-(2-Hydroxy-ethoxy)-benzyl]-methyl-amino}-5,6,7-trimethoxy-1H-quinazolin-4-one], the melting point is 146 to 147.5 °C.

`COc1cc2[nH]c(N(C)Cc3cccc(-n4ccc(C)n4)c3)nc(=O)c2c(C)c1OC` [Example 233, 6,7-Dimethoxy-5-methyl-2-{methyl-[3-(3-methyl-pyrazol-1-yl)-benzyl]-amino}-1H-quinazolin-4-one] came in with a melting point of 220 to 223.5 °C. For `COc1cc2[nH]c(N(C)Cc3cccc(NCCO)c3)nc(=O)c2c(OC)c1OC` [Example G-16, 2-{[3-(2-Hydroxy-ethylamino)-benzyl]-methyl-amino}-5,6,7-trimethoxy-1H-quinazolin-4-one] the value was 60.5 to 61.4 °C; for `COc1cc2[nH]c(N(C)Cc3cccc(NCCCO)c3)nc(=O)c2c(OC)c1OC` [Example G-18, 2-{[3-(3-Hydroxy-propylamino)-benzyl]-methyl-amino}-5,6,7-trimethoxy-1H-quinazolin-4-one], 47 to 48.5 °C; for `CNCc1cccc(CNc2nc(=O)c3c(C)c(OC)c(OC)cc3[nH]2)c1` [Example 69, 6,7-Dimethoxy-5-methyl-2-(3-methylaminomethyl-benzylamino)-1H-quinazolin-4-one], 142.5 to 142.9 °C.

Molecule `CCN(C)CCc1ccc(CN(C)c2nc(=O)c3c(C)c(OC)c(OC)cc3[nH]2)cc1` [Example 28, 2-({4-[2-(Ethyl-methyl-amino)-ethyl]-benzyl}-methyl-amino)-6,7-dimethoxy-5-methyl-1H-quinazolin-4-one] came in with a melting point of 172.4 to 173.2 °C. On to `CCNCc1cccc(CN(C)c2nc(=O)c3c(C)c(OC)c(OC)cc3[nH]2)c1` [Example 113, 2-[(3-Ethylaminomethyl-benzyl)-methyl-amino]-6,7-dimethoxy-5-methyl-1H-quinazolin-4-one], for which the melting point was 158.2 to 158.9 °C. For `COc1cc2[nH]c(N(C)Cc3cccc(N(CCO)CCO)c3)nc(=O)c2c(OC)c1OC` [Example 190, 2-({3-[Bis(2-hydroxy-ethyl)-amino]-bewnzyl}-methyl-amino)-5,6,7-trimethoxy-1H-quinazolin-4-one] the value was 138.1 to 141 °C.

`COc1cc2[nH]c(N(C)Cc3cccc(CN(C)C)c3)nc(=O)c2c(C)c1OC` [Example 56, 2-[(3-Dimethylaminomethyl-benzyl)-methyl-amino]-6,7-dimethoxy-5-methyl-1H-quinazolin-4-one] came in with a melting point of 174.9 to 176 °C. For `COc1cc2[nH]c(N(C)Cc3cccc(CN4CCOCC4)c3)nc(=O)c2c(OC)c1OC` [Example 110, 5,6,7-Trimethoxy-2-[methyl-(3-morpholin-4-ylmethyl-benzyl)-amino]-1H-quinazolin-4-one] the value was 160 to 162.1 °C; for `CCNCc1cccc(CN(C)c2nc(=O)c3c(OC)c(OC)c(OC)cc3[nH]2)c1` [Example 43, 2-[(3-Ethylaminomethyl-benzyl)-methyl-amino]-5,6,7-trimethoxy-1H-quinazolin-4-one], 133.9 to 134.7 °C.

One may read the melting point as the temperature of the solid-liquid transition.
